Test results reported in patent publication US7956070B2, “Piperidines as chemokine modulators (CCR)” (AstraZeneca AB, priority 2004, dated 2011).

assay: pKa measurement (Sirius GLpKa); type: physicochemical; conditions: ionic strength adjusted (0.10 M KCl) water; Method B: potentiometric method; read-out: pKa (measured using Method B)
Description: The pKa of a compound of formula (I) is measured using one of the following methodologies.
The apparatus used consists of a Sirius GLpKa instrument with DPAS (Dip Probe Absorption Spectroscopy) attachment. Key elements of the apparatus are a Sirius pH electrode, stirrer, titrant dispensing tubes, a multi-tipped dispenser, motor driven dispensing syringes, fibre optic UV probe and diode array detector. In addition, solutions in PTFE containers of ionic strength adjusted (0.10 M KCl) distilled water, nominally 0.50 M HCl, nominally 0.50 M KOH and 80% v/v methanol:water are also housed within the instrument. The titration solutions are constantly purged with oxygen free nitrogen. The reservoir for the potassium hydroxide solution is further protected from atmospheric contamination by a soda-lime guard-tube. Samples are placed in titration vessels which in turn are placed in a movable autosampler tray (maximum capacity 48 samples). The electrode, stirrer, dispensing tubing/tips and DPAS probe are housed on a movable, automated z-tower unit, which, controlled by software, positions itself in the appropriate titration vessel when titrating. The Sirius GLpKa instrument is directly connected to a dedicated PC supporting software for assay setup and subsequent data analysis. Assays are set up using the GlpKaControl software and results are analysed using the pKaLOGP and pKaUV software on the PC. The software also allows determination of multiple pKas using complex curve fitting analyses.
Method B: Potentiometric Method
Two types of potentiometric titrations may be performed in order to determine a compound's pKa/pKas; a purely aqueous titration (recommended for fairly water soluble compounds) and a cosolvent titration, where variable amounts of methanol are added to the sample in addition to ionic strength adjusted water (recommended for compounds which are not soluble in water). For the latter, a value for the compound's pKa in pure ionic strength adjusted water can be estimated by the Yasuda-Shedlovsky procedure. This involves measuring the apparent pKa of the compound at three known weight percentages of methanol:water (transposed into reciprocals of the dielectric constants of the medium, 1/εr) and then extrapolating to 0 wt % methanol (1/εr=[…]).
The GLpKa instrument unit also houses two aqueous wash containers (containing distilled water), a waste beaker (to dispense extraneous solutions into) and a container holding pH 7.00 buffer solution for the electrode to be immersed in during periods between titrations. Each time a set of titrations is carried out, these solutions are replaced. Position 1 in the autosampler contains a titration vessel containing pH 7.00 buffer solution (changed for each titration set). For each titration set to be run, position 2 houses a titration vessel into which ionic strength adjusted water is dispensed (typically 15.00 mL). This in turn is adjusted to pH 1.80 with aqueous HCl and then titrated to pH 12.20 by gradual addition of aqueous KOH. This is referred to as a blank titration and is employed by the pKaLogP software in order to calibrate the pH electrode and to standardise the HCl solution, using the so-called four-plus parameter procedure. Periodically, (typically every 3 months, or when the titration solutions run low) the titration solutions are replaced and the KOH solution standardised against potassium hydrogen phthalate using a standardisation procedure within the GLpKaControl software. Between 1-2 mg of each sample must be accurately weighed out. Samples are placed in provided glass titration vessels. The weight of compound must be entered into the GLpKaControl software. […]

| pKa | Structure (SMILES) |
| --- | --- |
| 3 | N#Cc1cc(C(=O)NC[C@@H](O)CN2CCC(Oc3ccc(Cl)c(Cl)c3)CC2)c(-c2ccccc2)[nH]c1=O [Example 12, 5-Cyano-N-{(2R)-3-[4-(3,4-dichlorophenoxy)piperidin-1-yl]-2-hydroxypropyl}-6-oxo-2-phenyl-1,6-dihydropyridine-3-carboxamide] |
| 5.2 | O=C(NC[C@@H](O)CN1CCC(Oc2ccc(Cl)c(Cl)c2)CC1)c1nn[nH]c1SCC(F)(F)F [Example 19, N-{(2R)-3-[4-(3,4-Dichlorophenoxy)piperidin-1-yl]-2-hydroxypropyl}-5-[(2,2,2-trifluoroethyl)thio]-1H-1,2,3-triazole-4-carboxamide] |
| 7.5 | CS(=O)(=O)Nc1nc(C(F)(F)F)c(C(=O)NC[C@@H](O)CN2CCC(Oc3ccc(Cl)c(Cl)c3)CC2)s1 [Example 21, N-{(2R)-3-[4-(3,4-Dichlorophenoxy)piperidin-1-yl]-2-hydroxypropyl}-2-[(methylsulfonyl)amino]-4-(trifluoromethyl)-1,3-thiazole-5-carboxamide] |
| 4.7 | O=C(NC[C@@H](O)CN1CCC(Oc2ccc(Cl)c(Cl)c2)CC1)c1sc(=O)[nH]c1C(F)(F)F [Example 4, N-{(2R)-3-[4-(3,4-Dichlorophenoxy)piperidin-1-yl]-2-hydroxypropyl}-2,3-dihydro-2-oxo-4-(trifluoromethyl)-5-thiazolecarboxamide] |
| 6.6 | O=C(NC[C@@H](O)CN1CCC(Oc2ccc(Cl)c(Cl)c2)CC1)c1sc(=O)[nH]c1CC(F)(F)F [Example 33, N-{(2R)-3-[4-(3,4-Dichlorophenoxy)piperidin-1-yl]-2-hydroxypropyl}-2-oxo-4-(2,2,2-trifluoroethyl)-2,3-dihydro-1,3-thiazole-5-carboxamide] |
| 5.5 | CSc1[nH]nnc1C(=O)NC[C@@H](O)CN1CCC(Oc2ccc(Cl)c(Cl)c2)CC1 [Example 36, N-{(2R)-3-[4-(3,4-Dichlorophenoxy)piperidin-1-yl]-2-hydroxypropyl}-5-(methylthio)-1H-1,2,3-triazole-4-carboxamide] |
| 6.1 | O=C(NC[C@@H](O)CN1CCC(Oc2ccc(Cl)c(Cl)c2)CC1)c1nn[nH]c1-c1ccc(F)cc1 [Example 26, N-{(2R)-3-[4-(3,4-Dichlorophenoxy)piperidin-1-yl]-2-hydroxypropyl}-5-(4-fluorophenyl)-1H-1,2,3-triazole-4-carboxamide] |
| 3 | Cc1c(Cl)ccc(OC2CCN(C[C@H](O)CNC(=O)c3cc(C#N)c(=O)[nH]c3C(F)(F)F)CC2)c1Cl [Example 11, 5-Cyano-N-{(2R)-3-[4-(2,4-dichloro-3-methylphenoxy)piperidin-1-yl]-2-hydroxypropyl}-6-oxo-2-(trifluoromethyl)-1,6-dihydropyridine-3-carboxamide] |
| 4.7 | Cc1c(OC2CCN(C[C@H](O)CNC(=O)c3sc(=O)[nH]c3C(F)(F)F)CC2)ccc(C#N)c1Cl [Example 40, N-{(2R)-3-[4-(3-Chloro-4-cyano-2-methylphenoxy)piperidin-1-yl]-2-hydroxypropyl}-2-oxo-4-(trifluoromethyl)-2,3-dihydro-1,3-thiazole-5-carboxamide] |
| 5.9 | O=C(NC[C@@H](O)CN1CCC(Oc2ccc(Cl)c(Cl)c2)CC1)c1ccc(=O)[nH]c1C(F)(F)F [Example 1, N-{(2R)-3-[4-(3,4-Dichlorophenoxy)piperidin-1-yl]-2-hydroxypropyl}-6-oxo-2-(trifluoromethyl)-1,6-dihydropyridine-3-carboxamide] |
| 4 | O=C(NC[C@@H](O)CN1CCC(Oc2ccc(Cl)c(Cl)c2)CC1)c1nn[nH]c1C(F)(F)F [Example 38, N-{(2R)-3-[4-(3,4-Dichlorophenoxy)piperidin-1-yl]-2-hydroxypropyl}-5-(trifluoromethyl)-1H-1,2,3-triazole-4-carboxamide] |

same assay, conditions: method not stated; read-out: measured pKa

| pKa | Structure (SMILES) |
| --- | --- |
| 2.6 | Cc1c(OC2CCN(C[C@H](O)CNC(=O)COc3cccc(C(=O)O)c3)CC2)ccc(Cl)c1Cl [Example 46, 3-[2-({(2R)-3-[4-(3,4-Dichloro-2-methylphenoxy)piperidin-1-yl]-2-hydroxypropyl}amino)-2-oxoethoxy]benzoic acid] |
